This passage reports IC50 and EC50 results from patent US11970474B2, “Substituted benzodiazoles and use thereof in therapy” (THOMAS HELLEDAYS STIFTELSE FÖR MEDICINSK FORSKNING, priority 2018, dated 2024).

Where two headings read alike, the source gives them in different places.

One assay addresses OGG1 (Homo sapiens (Human), UniProt O15527). In words: In vitro OGG1 activity assay. In kind it is biochemical. Conditions: 800 pM OGG1 enzyme, 2 nM human APEX1, 10 nM 8-oxoA:C substrate. The gist of the method: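 Read-out is fluorescein fluorescence, with compounds in DMSO added first, then enzyme and substrate. OGG1 excises its substrate base from a quenched fluorophore-labelled duplex, and surplus APEX1 cuts the resulting apurinic site. The duplex then melts and fluorescence rises in proportion to glycosylase activity.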

The subject of a further assay is MLE12 cells. Kind of assay: Cell viability assay in MLE12 cells (resazurin). In kind it is cell-based, mouse. Particulars: TNF-α 20 ng/ml, resazurin added after 24 hours culture. The method, then:
(§1) Stock solutions (10 mM in DMSO) of compounds were dispensed in V-bottom 384-well plates and the following dilutions were prepared: 10 mM and 0.05 mM. The dilutions were transferred to the source plate. Duplicate 6 points dose-response curves of compounds were nano-dispensed in cell plates (CCL2 assay) and in parallel, 11 points DR curves in duplicates were nano-dispensed for the viability assay. The plates were heat sealed and kept at RT until use.
(§2) MLE12 cells in flasks were washed once with PBS, detached with Trypsin/EDTA, resuspended in fresh medium and counted. Cells were diluted to 3×10^5 cells/ml and seeded with Multidrop Combi in cell plates pre-dispensed with compounds, 25 μl/well (7500 cells/well). The plates were placed, one by one, in a CO2-incubator at 37° C. for 1 hour after which 25 μl/well of TNF-α (final concentration 20 ng/ml) were added. The plates were transferred back to the CO2-incubator placed in a plastic box with wet tissue in the bottom, to avoid evaporation, for 30 hours.
After 24 hours culture, resazurin reagent (stock 1 mg/ml in PBS) diluted 1:17 in PBS was added with Multidrop Combi, 10 μl/well, and plates were incubated for 6 hours. Plates were read in Sense plate reader with resorufin protocol (ex544 nm/em595 nm). The results were imported to an excel template where the EC50 values were calculated using XLfit.

The next assay has as its system CCL2. In words: Mouse CCL2 assay in MLE12 cells. In kind it is cell-based.
Excerpt: Cisbio mouse CCL2 assay is intended for the quantitative measurement of CCL2 in supernatant using HTRF® technology. The assay is compatible with mouse samples, and is highly specific for CCL2. CCL2 is detected in a sandwich assay format using 2 different specific antibodies, one labeled with Cryptate (donor) and the second with d2 (acceptor). The detection principle is based on HTRF® technology. When the labelled antibodies bind to the same antigen, the excitation of the donor with a light source (laser or flash lamp) triggers a Fluorescence Resonance Energy Transfer (FRET) towards the acceptor, which in turn fluoresces at a specific wavelength (665 nm). The two antibodies bind to the CCL2 present in the sample, thereby generating FRET. Signal intensity is proportional to the number of antigen-antibody complexes formed and therefore to the CCL2 concentration. • Materials: • Cells: MLE12 (Mouse Lung Epithelial cells, SV40 transformed) • Medium: DMEM/F12 (Gibco #11330057), FBS 5% (Gibco #10500064), Pen/Strep 50 U/50 μg/ml (Gibco #15070063) • Cell plates: 384-well, black/clear, TC-treated (Corning #3764) • Source plate: Labcyte LDV 384 (Labcyte #LP-0200) • Compound dilution plate: V-bottom 384-well PP plate (Greiner #781280) • Compounds: 10 mM stocks in DMSO • HTRF plates: 384-well, white, half area, non-binding (Costar #3824) • Mouse CCL2 kit: Cisbio 62MCCL2PEH • Other reagents: Trypsin/EDTA 10× (Gibco #15400054), PBS (Gibco #14190169), Resazurin (Sigma-Aldrich #199303), 1 mg/ml in PBS, TNF-α 200 μg/ml in PBS (Peprotech #300-01A) • Instruments: • Echo liquid handler (Labcyte) • Multidrop Combi (Thermo Scientific) • Sense plate reader (Hidex) Compound Handling:
as §1, §2
After 30 hours incubation, the plates were spun down 5 minutes at 400 g, and 16 μl/well of the supernatants were transferred to the assay plate. A mCCL2 standard curve was prepared according to the kit protocol and 16 μl/well of the standards were also added to the assay plate.
The anti-CCL2 antibody mix was prepared according to the kit protocol, and 4 μl/well were added to the assay plate. The plate was sealed and incubated over night at RT. After incubation the plate was read in Sense plate reader with Time-resolved FRET protocol (Ex330 nm/Em 620 and 665 nm). After data reduction, the delta ratios were imported to an excel template where the IC50 values were calculated.

Where [1] appears, read: Mus musculus, MLE12, 30 h, MLE12 cells, TNF-α 20 ng/ml, supernatant after 30 hours, HTRF, read-out: CCL2 (EC50).
The mark [2] stands for this setting: Mus musculus, MLE12, 30 h, read-out: CCL2 (EC50, nM).

Chain of OGG1 (O15527 whole entry): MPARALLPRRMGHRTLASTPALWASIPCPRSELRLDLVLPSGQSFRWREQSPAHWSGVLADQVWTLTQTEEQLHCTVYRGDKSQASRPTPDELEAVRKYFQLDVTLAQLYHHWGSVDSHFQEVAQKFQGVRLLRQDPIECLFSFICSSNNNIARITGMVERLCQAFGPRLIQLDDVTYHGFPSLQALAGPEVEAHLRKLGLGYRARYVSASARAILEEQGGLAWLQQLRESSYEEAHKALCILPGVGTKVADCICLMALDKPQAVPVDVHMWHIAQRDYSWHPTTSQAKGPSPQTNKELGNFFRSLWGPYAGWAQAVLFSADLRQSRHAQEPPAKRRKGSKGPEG

As to `O=c1[nH]c2c(Cl)cccc2n1[C@H]1CC[C@@H](C(=O)Nc2ccc3cc[nH]c3c2)CC1` [Example 148, (Cis)-4-(4-chloro-2-oxo-2,3-dihydro-1H-1,3-benzodiazol-1-yl)-N-(1H-indol-6-yl)cyclohexane-1-carboxamide], the IC50 on OGG1 was 0.098 µM; in the assay on MLE12 cells (Mus musculus, MLE12, 24 h) it was 15.7 µM. For the same compound, the 50% effective concentration (EC50) in the assay on CCL2 (setting [1]) is 31700 nM.

Take `COc1cc(NC(=O)[C@H]2CC[C@@H](n3c(=O)[nH]c4c(C(=O)N5CCOCC5)cccc43)CC2)ccc1C` [Example 262, Cis-N-(3-methoxy-4-methylphenyl)-4-[4-(morpholine-4-carbonyl)-2-oxo-2,3-dihydro-1H-1,3-benzodiazol-1-yl]cyclohexane-1-carboxamide]: the IC50 against OGG1 worked out at 0.348 µM; in the assay with MLE12 cells (Mus musculus, MLE12, 24 h), 19.7 µM. Moreover, the EC50 in the assay on CCL2 (setting [1]) was over 100000 nM.

Consider `COc1cc(NC(=O)[C@H]2CC[C@@H](n3c(=O)[nH]c4c(C(=O)NCc5ncccn5)cccc43)CC2)ccc1C` [Example 276, 2-Oxo-N-[(pyrimidin-2-yl)methyl]-1-[cis-4-[(3-methoxy-4-methylphenyl)carbamoyl]cyclohexyl]-2,3-dihydro-1H-1,3-benzodiazole-4-carboxamide], for which the IC50 on OGG1 is 0.0029 µM; with MLE12 cells (Mus musculus, MLE12, 24 h) it was 16.9 µM. In the assay with CCL2 (setting [1]), the concentration for a half-maximal effect (EC50) stood at 54000 nM.

As for `O=c1[nH]c2c(Br)cccc2n1[C@H]1CC[C@@H](C(=O)Nc2ccc3c(c2)OCO3)CC1` [Example 166, (Cis)-N-(2H-1,3-benzodioxol-5-yl)-4-(4-bromo-2-oxo-2,3-dihydro-1H-1,3-benzodiazol-1-yl)cyclohexane-1-carboxamide], the concentration for half-maximal inhibition (IC50) against OGG1 is 0.041 µM; in the assay on MLE12 cells (Mus musculus, MLE12, 24 h), 16.4 µM. In the assay with CCL2 (setting [1]), the EC50 was 42700 nM.

On to `COc1cc(NC(=O)[C@H]2CC[C@@H](n3c(=O)[nH]c4ccccc43)CC2)ccc1C` [Example 226, Cis-N-(3-methoxy-4-methylphenyl)-4-(2-oxo-2,3-dihydro-1H-1,3-benzodiazol-1-yl)cyclohexane-1-carboxamide], for which the IC50 against OGG1 was 0.0779 µM; in the assay on MLE12 cells (Mus musculus, MLE12, 24 h) it was 17.1 µM. Also, in the assay with CCL2 (setting [1]), the EC50 was 34100 nM.

With `COc1cc(NC(=O)[C@H]2CC[C@@H](n3c(=O)[nH]c4c(NC(=O)c5cc[nH]n5)cccc43)CC2)ccc1C` [Example 299, N-{2-Oxo-1-[cis-4-[(3-methoxy-4-methylphenyl)carbamoyl]cyclohexyl]-2,3-dihydro-1H-1,3-benzodiazol-4-yl}-1H-pyrazole-3-carboxamide], the IC50 on OGG1 came out at 0.0272 µM; in the assay with MLE12 cells (Mus musculus, MLE12, 24 h), 10.2 µM. Besides, the EC50 in the assay on CCL2 (setting [1]) stood at 31700 nM.

`COc1ccc(NC(=O)[C@H]2CC[C@@H](n3c(=O)[nH]c4c(Br)cccc43)CC2)cc1OC` [Example 192, Cis-4-(4-bromo-2-oxo-2,3-dihydro-1H-1,3-benzodiazol-1-yl)-N-(3,4-dimethoxyphenyl)cyclohexane-1-carboxamide]: the IC50 amounted to 0.0342 µM against OGG1 and 15.7 µM in the assay on MLE12 cells (Mus musculus, MLE12, 24 h). For the same compound, the EC50 with CCL2 (setting [1]) is 32900 nM.

Turning to `O=C(Nc1ccc(I)cc1)N1CCC(n2c(=O)[nH]c3c(-n4cncn4)cccc32)CC1` [Example 23, N-(4-iodophenyl)-4-[2-oxo-4-(1H-1,2,4-triazol-1-yl)-2,3-dihydro-1H-1,3-benzodiazol-1-yl]piperidine-1-carboxamide], the 50% inhibitory concentration (IC50) stood at 0.728 µM at OGG1 and 19.9 µM with MLE12 cells (Mus musculus, MLE12, 24 h). Besides, the half-maximal effective concentration (EC50) in the assay with CCL2 (setting [1]) came out at 29000 nM.

On to `O=C(Nc1ccc(Cl)c(Cl)c1)N1CCC(n2c(=O)[nH]c3c(-c4cncnc4)cccc32)CC1` [Example 37, N-(3,4-dichlorophenyl)-4-[2-oxo-4-(pyrimidin-5-yl)-2,3-dihydro-1H-1,3-benzodiazol-1-yl]piperidine-1-carboxamide], for which the half-inhibitory concentration (IC50) stood at 1.59 µM against OGG1 and 7.03 µM in the assay with MLE12 cells (Mus musculus, MLE12, 24 h). Also, in the assay with CCL2 (setting [1]), the EC50 stood at 17400 nM.

For the compound `COc1cc(NC(=O)[C@H]2CC[C@@H](n3c(=O)[nH]c4c(N5CCC(NC(=O)OC(C)(C)C)C5)cccc43)CC2)ccc1C` (stereo partly drawn) [Example 281, tert-Butyl N-(1-{2-oxo-1-[cis-4-[(3-methoxy-4-methylphenyl)carbamoyl]cyclohexyl]-2,3-dihydro-1H-1,3-benzodiazol-4-yl}pyrrolidin-3-yl)carbamate], the IC50 amounted to 0.149 µM at OGG1 and 1.83 µM in the assay on MLE12 cells (Mus musculus, MLE12, 24 h). The EC50 in the assay with CCL2 (setting [1]) was determined as 8820 nM.

As for `COc1cc(NC(=O)[C@H]2CC[C@@H](n3c(=O)[nH]c4c(C5=CCNCC5)cccc43)CC2)ccc1C` [Example 311, Cis-N-(3-methoxy-4-methylphenyl)-4-[2-oxo-4-(1,2,3,6-tetrahydropyridin-4-yl)-2,3-dihydro-1H-1,3-benzodiazol-1-yl]cyclohexane-1-carboxamide], the half-inhibitory concentration (IC50) worked out at 0.00449 µM on OGG1 and 13.8 µM in the assay on MLE12 cells (Mus musculus, MLE12, 24 h). Besides, the EC50 with CCL2 (setting [1]) was determined as 14500 nM.

Turning to `Cc1cc(NC(=O)N2C3CCC2CC(n2c(=O)[nH]c4c(Br)cccc42)C3)ccc1I` (stereo not drawn) [Example 84, 3-(4-Bromo-2-oxo-2,3-dihydro-1H-1,3-benzodiazol-1-yl)-N-(4-iodo-3-methylphenyl)-(endo)-8-azabicyclo[3.2.1]octane-8-carboxamide], the 50% inhibitory concentration (IC50) at OGG1 is 0.03 µM; in the assay on MLE12 cells (Mus musculus), 8.14 µM. Also, the EC50 with CCL2 (setting [2]) is 23900 nM.

For `COc1cc(NC(=O)[C@H]2CC[C@@H](n3c(=O)[nH]c4c(C(=O)N(C)C5CCN(C)C5)cccc43)CC2)ccc1C` (stereo partly drawn) [Example 277, N-Methyl-N-(1-methylpyrrolidin-3-yl)-2-oxo-1-[cis-4-[(3-methoxy-4-methylphenyl)carbamoyl]cyclohexyl]-2,3-dihydro-1H-1,3-benzodiazole-4-carboxamide], the IC50 at OGG1 was 0.0482 µM; in the assay on MLE12 cells (Mus musculus, MLE12, 24 h), 15 µM. The EC50 in the assay with CCL2 (setting [1]) stood at 28600 nM.

Turning to `COc1cc(NC(=O)N2CCC(n3c(=O)[nH]c4c(Br)cccc43)CC2)ccc1C` [Example 75, 4-(4-Bromo-2-oxo-2,3-dihydro-1H-1,3-benzodiazol-1-yl)-N-(3-methoxy-4-methylphenyl)piperidine-1-carboxamide], the IC50 on OGG1 was 0.223 µM; in the assay with MLE12 cells (Mus musculus, MLE12, 24 h), 10.4 µM; in the assay with MLE12 cells, 12.8 µM. Further, the EC50 in the assay with CCL2 (MLE12 cells, TNF-α 20 ng/ml, supernatant after 30 hours, HTRF, read-out: CCL2 (EC50)) came to 39400 nM; with CCL2 (setting [1]), 34100 nM.

`O=C(Nc1ccc(Cl)c(F)c1)N1C2CCC1CC(n1c(=O)[nH]c3c(Br)cccc31)C2` (stereo not drawn) [Example 86, 3-(4-Bromo-2-oxo-2,3-dihydro-1H-1,3-benzodiazol-1-yl)-N-(4-chloro-3-fluorophenyl)-(endo)-8-azabicyclo[3.2.1]octane-8-carboxamide]: the half-inhibitory concentration (IC50) against OGG1 was determined as 0.059 µM; with MLE12 cells (Mus musculus) it was 13.7 µM. Besides, the EC50 with CCL2 (setting [2]) came out at 19400 nM.

Regarding `COc1cc(NC(=O)[C@H]2CC[C@@H](n3c(=O)[nH]c4c(Cl)cccc43)CC2)ccc1C` [Example 146, (Cis)-4-(4-chloro-2-oxo-2,3-dihydro-1H-1,3-benzodiazol-1-yl)-N-(3-methoxy-4-methylphenyl)cyclohexane-1-carboxamide], the IC50 against OGG1 amounted to 0.027 µM; in the assay on MLE12 cells (Mus musculus, MLE12, 24 h), 9.72 µM. Besides, the EC50 in the assay on CCL2 (setting [1]) came out at 29600 nM.
